Test [1] concerns the target T1, human RORγt ligand binding domain (RORγt LBD) (Homo sapiens, UniProt P51449).
T1 construct: His-tag (N); TurboTEV protease cleavage site (ENLYFQG) (N); made in house; host or cells: E. coli (pHIS1, a modified pET expression vector)
T1 sequence (P51449 with tags, fused parts or gaps): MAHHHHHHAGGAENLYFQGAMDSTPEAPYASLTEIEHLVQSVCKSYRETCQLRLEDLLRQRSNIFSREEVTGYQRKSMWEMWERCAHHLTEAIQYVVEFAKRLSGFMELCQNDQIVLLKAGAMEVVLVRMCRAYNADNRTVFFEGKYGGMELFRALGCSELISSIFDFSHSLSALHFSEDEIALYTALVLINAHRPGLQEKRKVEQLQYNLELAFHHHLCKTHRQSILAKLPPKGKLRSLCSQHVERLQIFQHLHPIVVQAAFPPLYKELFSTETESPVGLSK
Briefly: RORγt ThermoFluor assay. As to conditions: estimated from thermal shift concentration response. Summed up: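 Thermal shift of RORγt LBD (0.065 mg/mL) with 60 μM 1,8-ANS in 100 mM Hepes pH 7.0, NaCl, GSH, 0.002% Tween-20, heated at 1° C/min. ANS fluorescence tracked versus temperature; ΔTm relative to DMSO wells. Compounds serially diluted 1:2 from 10 mM DMSO stock.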

The next test concerns the target T2, full-length human RORγt (Homo sapiens, UniProt P51449).
T2 construct: expressed in transfected cells; host or cells: HEK293T, transiently transfected with pCMV-BD-ROR
T2 sequence (P51449 1-497 isoform P51449-2): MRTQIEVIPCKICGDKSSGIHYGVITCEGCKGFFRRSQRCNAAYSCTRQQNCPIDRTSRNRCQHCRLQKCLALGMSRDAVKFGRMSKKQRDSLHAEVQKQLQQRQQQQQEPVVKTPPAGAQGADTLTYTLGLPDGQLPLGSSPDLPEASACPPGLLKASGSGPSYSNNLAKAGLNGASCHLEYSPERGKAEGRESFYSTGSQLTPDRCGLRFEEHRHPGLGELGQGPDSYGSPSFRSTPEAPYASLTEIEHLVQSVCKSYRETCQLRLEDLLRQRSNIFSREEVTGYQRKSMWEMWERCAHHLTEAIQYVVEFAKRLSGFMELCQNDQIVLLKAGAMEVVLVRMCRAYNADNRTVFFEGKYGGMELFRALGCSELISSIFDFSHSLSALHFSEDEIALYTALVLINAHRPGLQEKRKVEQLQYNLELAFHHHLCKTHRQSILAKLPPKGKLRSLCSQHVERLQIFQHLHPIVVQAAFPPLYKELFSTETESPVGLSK
Briefly: RORγt (full-length human) Reporter Assay, Conditions A. As to conditions: for inhibition at 0.67 µM: 0.67 μM compound concentration, read-out: RORγt (FL) Reporter Assay A, % inhibition (** at 0.67 μM); for IC50: HEK293T cells, GAL4-DBD-RORγt, luciferase, read-out: RORγt (FL) Reporter Assay A, IC50; for inhibition at 6 µM: read-out: RORγt (FL) Reporter Assay A, % inhibition @ 6 μM, 6 μM compound; for inhibition at 2 µM: read-out: RORγt (FL) Reporter Assay A, % inhibition (* at 2 μM), 2 μM compound concentration (footnote *). Type of test: cell-based. Summed up: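 Reporter cells lysed after 16–20 h compound exposure; firefly and Renilla luciferase luminescence measured. Firefly signal normalised to DMSO and saturating reference compound, then to Renilla; IC50 from normalised data versus concentration, percent inhibition relative to DMSO.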

By Kd is commonly meant the concentration at which binding is half-saturated. Broadly, the inhibition is the relative decrease from the control value, in per cent. As usually defined, the IC50 is the concentration that gives 50% inhibition.

Each structure is given as a SMILES string.

With `CCN(CC)C(=O)c1nc(-c2cc(C(C)(C)O)ncn2)sc1-c1ccc(S(=O)(=O)N[C@@H](C)C(F)(F)F)c(Cl)c1Cl` [Example 17/2, (S)-5-(2,3-Dichloro-4-(N-(1,1,1-trifluoropropan-2-yl)sulfamoyl)phenyl)-N,N-diethyl-2-(6-(2-hydroxypropan-2-yl)pyrimidin-4-yl)thiazole-4-carboxamide], in test [1], the dissociation constant (Kd) was 2.8 nM. On full-length human RORγt, the inhibition at 0.67 µM is 106% and the concentration for half-maximal inhibition (IC50) worked out at 31 nM.
Consider `C[C@H](NS(=O)(=O)c1ccc(-c2sc(-c3noc(C(C)(C)O)n3)nc2C(=O)N2CCC(F)(F)CC2)c(C(F)F)c1F)C(F)(F)F` [Example 11/2, (S)-3-(Difluoromethyl)-4-(4-(4,4-difluoropiperidine-1-carbonyl)-2-(5-(2-hydroxypropan-2-yl)-1,2,4-oxadiazol-3-yl)thiazol-5-yl)-2-fluoro-N-(1,1,1-trifluoropropan-2-yl)benzenesulfonamide], for which the Kd in test [1] was 12 nM. In addition, on full-length human RORγt, the 50% inhibitory concentration (IC50) amounted to 46 nM and the inhibition at 6 µM was 108%.
On to `COC1(c2nnc(-c3nc(C(=O)N4CCC(F)(F)CC4)c(-c4ccc(S(=O)(=O)N[C@@H](C)C(F)(F)F)c(Cl)c4Cl)s3)o2)CC1` [Example 1/2, (S)-2,3-Dichloro-4-(4-(4,4-difluoropiperidine-1-carbonyl)-2-(5-(1-methoxycyclopropyl)-1,3,4-oxadiazol-2-yl)thiazol-5-yl)-N-(1,1,1-trifluoropropan-2-yl)benzenesulfonamide], for which the dissociation constant (Kd) in test [1] was 0.42 nM. Besides, at full-length human RORγt, the inhibition at 0.67 µM was determined as 105% and the IC50 came out at 11 nM.
Regarding `CC[C@H](NS(=O)(=O)c1ccc(-c2sc(-c3noc(CC(C)(C)O)n3)nc2C(=O)N2CCC(F)(F)C2)c(C(F)F)c1F)C(F)(F)F` [Example 12/1, (S)-3-(Difluoromethyl)-4-(4-(3,3-difluoropyrrolidine-1-carbonyl)-2-(5-(2-hydroxy-2-methylpropyl)-1,2,4-oxadiazol-3-yl)thiazol-5-yl)-2-fluoro-N-(1,1,1-trifluorobutan-2-yl)benzenesulfonamide], the equilibrium dissociation constant (Kd) in test [1] was 30 nM. Also, at full-length human RORγt, the 50% inhibitory concentration (IC50) amounted to 120 nM and the inhibition at 6 µM was 102%.
As to `C[C@H](NS(=O)(=O)c1ccc(-c2sc(-c3nnc(C(C)(C)O)o3)nc2C(=O)N2CC(F)(F)C[C@@H]2C)c(C(F)F)c1F)C(F)(F)F` [Example 6/4, 4-(4-((S)-4,4-Difluoro-2-methylpyrrolidine-1-carbonyl)-2-(5-(2-hydroxypropan-2-yl)-1,3,4-oxadiazol-2-yl)thiazol-5-yl)-3-(difluoromethyl)-2-fluoro-N—((S)-1,1,1-trifluoropropan-2-yl)benzenesulfonamide], in test [1], the dissociation constant Kd is 6.8 nM. Moreover, on full-length human RORγt, the IC50 worked out at 82 nM and the inhibition at 6 µM turned out to be 108%.
For the compound `CC[C@H](NS(=O)(=O)c1ccc(-c2sc(-c3nnc(C(C)(C)O)o3)nc2C(=O)N2CC(F)(F)C2)c(Cl)c1)C(F)(F)F` [Example 6/13, (S)-3-Chloro-4-(4-(3,3-difluoroazetidine-1-carbonyl)-2-(5-(2-hydroxypropan-2-yl)-1,3,4-oxadiazol-2-yl)thiazol-5-yl)-N-(1,1,1-trifluorobutan-2-yl)benzenesulfonamide], the equilibrium dissociation constant (Kd) in test [1] was 590 nM. Besides, on full-length human RORγt, the IC50 is 1100 nM and the inhibition at 6 µM worked out at 90%.
Regarding `CCN(CC)C(=O)c1nc(-c2nncn2CC(C)(C)O)sc1-c1ccc(C(O)(C(F)(F)F)C(F)(F)F)c(Cl)c1Cl` [Example 9/1, 5-(2,3-Dichloro-4-(1,1,1,3,3,3-hexafluoro-2-hydroxypropan-2-yl)phenyl)-N,N-diethyl-2-(4-(2-hydroxy-2-methylpropyl)-4H-1,2,4-triazol-3-yl)thiazole-4-carboxamide], in test [1], the Kd was 27 nM. For the same compound, on full-length human RORγt, the concentration for half-maximal inhibition (IC50) is 67 nM and the inhibition at 2 µM was determined as 99%.
`CC(C)(O)c1nnc(-c2nc(C(=O)N3CCC(F)(F)CC3)c(-c3ccc(CC(O)(C(F)(F)F)C(F)(F)F)c(Cl)c3Cl)s2)o1` [Example 8/2, (5-(2,3-Dichloro-4-(3,3,3-trifluoro-2-hydroxy-2-(trifluoromethyl)propyl)phenyl)-2-(5-(2-hydroxypropan-2-yl)-1,3,4-oxadiazol-2-yl)thiazol-4-yl)(4,4-difluoropiperidin-1-yl)methanone]: the Kd in test [1] was 1.7 nM. In addition, on full-length human RORγt, the concentration for half-maximal inhibition (IC50) is 51 nM and the inhibition at 2 µM came out at 104%.
Take `C[C@H](NS(=O)(=O)c1ccc(-c2sc(-c3nnc(C(C)(C)O)o3)nc2C(=O)N2CC(F)(F)C[C@@H]2C)c(Cl)c1Cl)C(F)(F)F` [Example 6/5, 2,3-Dichloro-4-(4-((S)-4,4-difluoro-2-methylpyrrolidine-1-carbonyl)-2-(5-(2-hydroxypropan-2-yl)-1,3,4-oxadiazol-2-yl)thiazol-5-yl)-N—((S)-1,1,1-trifluoropropan-2-yl)benzenesulfonamide]: the Kd in test [1] was 0.6 nM. At full-length human RORγt, the IC50 came to 23 nM and the inhibition at 6 µM was determined as 103%.
In the same order, the values of `C[C@H](NS(=O)(=O)c1ccc(-c2sc(-c3nnco3)nc2C(=O)N2CCC(F)(F)CC2)c(Cl)c1Cl)C(F)(F)F` [Example 4/5, (S)-2,3-Dichloro-4-(4-(4,4-difluoropiperidine-1-carbonyl)-2-(1,3,4-oxadiazol-2-yl)thiazol-5-yl)-N-(1,1,1-trifluoropropan-2-yl)benzenesulfonamide] are 12 nM, 52 nM and 110%.
Regarding `C[C@H](NS(=O)(=O)c1ccc(-c2sc(-c3nnc(C(C)(C)O)o3)nc2C(=O)N2CCC(F)(F)CC2)c(F)c1C(F)(F)F)C(F)(F)F` [Example 25, 4-(4-(4,4-Difluoropiperidine-1-carbonyl)-2-(5-(2-hydroxypropan-2-yl)-1,3,4-oxadiazol-2-yl)thiazol-5-yl)-3-fluoro-2-(trifluoromethyl)-N—((S)-1,1,1-trifluoropropan-2-yl)benzenesulfonamide], the Kd in test [1] was 10 nM. In addition, at full-length human RORγt, the 50% inhibitory concentration (IC50) is 93 nM and the inhibition at 6 µM is 98%.
With `CC[C@H](NS(=O)(=O)c1ccc(-c2sc(-c3nnc(C(C)(C)O)o3)nc2C(=O)N2CCC(F)(F)CC2)c(Cl)c1)C(F)(F)F` [Example 6/12, (S)-3-Chloro-4-(4-(4,4-difluoropiperidine-1-carbonyl)-2-(5-(2-hydroxypropan-2-yl)-1,3,4-oxadiazol-2-yl)thiazol-5-yl)-N-(1,1,1-trifluorobutan-2-yl)benzenesulfonamide], the Kd in test [1] is 10 nM. Further, at full-length human RORγt, the half-inhibitory concentration (IC50) is 55 nM and the inhibition at 6 µM is 103%.
In the same order, the values of `CCN(CC)C(=O)c1nc(-c2nnc(C)o2)sc1-c1ccc(S(=O)(=O)N[C@@H](C)C(F)(F)F)c(Cl)c1Cl` [Example 7, (S)-5-(2,3-Dichloro-4-(N-(1,1,1-trifluoropropan-2-yl)sulfamoyl)phenyl)-N,N-diethyl-2-(5-methyl-1,3,4-oxadiazol-2-yl)thiazole-4-carboxamide] are 290 nM, 120 nM and 102%.
Turning to `CCN(CC)C(=O)c1nc(-c2nnc(C(N)=O)o2)sc1-c1ccc(S(=O)(=O)N[C@@H](C)C(F)(F)F)c(Cl)c1Cl` [Example 5/1, (S)-5-(5-(2,3-Dichloro-4-(N-(1,1,1-trifluoropropan-2-yl)sulfamoyl)phenyl)-4-(diethylcarbamoyl)thiazol-2-yl)-1,3,4-oxadiazole-2-carboxamide], the Kd in test [1] is 120 nM. On full-length human RORγt, the IC50 worked out at 280 nM and the inhibition at 6 µM came to 105%.

The values are drawn from patent US9845319B2, “Amide substituted thiazoles as modulators of RORyt” (Janssen Pharmaceutica NV, priority 2014, dated 2017).
